In patent US20050063989A1, “Ion channel hybrid proteins as electrical sensors and use thereof” (COMMISSARIAT A L'ENERGIE ATOMIQUE, priority 2003, published 2005):

Legend:
[1] = target: T1, Kir6.2ΔC36 channels (Mus musculus, UniProt Q61743); assay: Inside-out patch-clamp of Kir6.2ΔC36 channels expressed alone in Xenopus oocytes; assay type: cell-based
T1 construct: expressed in transfected cells; host or cells: Xenopus laevis oocytes; excised inside-out patches
T1 sequence (Q61743 1-354 limits assumed): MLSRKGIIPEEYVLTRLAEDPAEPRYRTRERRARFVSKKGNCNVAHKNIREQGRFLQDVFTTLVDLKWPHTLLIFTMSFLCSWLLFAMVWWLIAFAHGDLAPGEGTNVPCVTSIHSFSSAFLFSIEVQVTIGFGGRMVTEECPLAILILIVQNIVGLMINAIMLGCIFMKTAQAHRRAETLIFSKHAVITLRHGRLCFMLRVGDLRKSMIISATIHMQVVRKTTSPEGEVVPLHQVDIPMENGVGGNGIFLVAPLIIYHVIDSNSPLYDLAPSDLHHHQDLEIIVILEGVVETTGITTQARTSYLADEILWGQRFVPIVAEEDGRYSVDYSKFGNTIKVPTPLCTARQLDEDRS
Text: (§1) Removal of the RKR endoplasmic reticulum retention signal of Kir6.2 was accomplished either by deletion of the last 26 or 36 residues of the C-terminal extremity (Tucker et al., Nature, 1997, 387: 179-183) through introduction of a premature stop codon at the correct position, or by site-directed mutagenesis of RKR to RAA (i.e., K370A and R371A). The resulting constructs, named Kir6.2Δ26, Kir6.2ΔC36, and Kir6.2KR370AA, were created by mutagenesis amplification (QuickChange site-directed mutagenesis kit, Stratagene). The sequences corresponding to the different constructs are as presented in Table 1: SUR2A-Kir6.2ΔC36 (SEQ ID NO: 3), MRP1-Kir6.2ΔC36 (SEQ ID NO: 4), YCF1-Kir6.2ΔC36 (SEQ ID NO: 5) and MRP1-Kir6.2[KR370AA] (SEQ ID NO: 6).
(§2) mRNAs coding Kir6.2 (˜2 ng) and wild-type SURs (˜6 ng) or mRNAs coding the fusion constructs (˜8 ng) were co-injected into defoliculated Xenopus laevis oocytes. Injected oocytes were stored at 19° C. in Barth's solution (in mM: 1 KCl, 0.82 MgSO4, 88 NaCl, 2.4 NaHCO3, 0.41 CaCl2, 0.3 Ca(NO3)2, 16 HEPES, pH 7.4) with 100 U/ml penicillin, 100 μg/ml streptomycin, and 100 μg/ml gentamycin.
(§3) Two to 15 days after injection, oocytes were devitellinized and recombinant KATP channels were characterized by the patch-clamp technique in the excised inside-out configuration (Hamill et al., Arch. Eur. J. Physiol., 1981, 391, 85-100). […]

[2] = tested on: MRP1-Kir6.2KR370AA; assay: Inside-out patch-clamp of MRP1-Kir6.2KR370AA channels expressed in Xenopus oocytes; assay type: cell-based, human MRP1, mouse Kir6.2; conditions: compared with MRP1-Kir6.2
Text: as §1, §2, §3

[3] = target: T2, SUR1-Kir6.2 channels (UniProt Q09427+Q61743); assay: Inside-out patch-clamp of SUR1-Kir6.2 fusion channels expressed in Xenopus oocytes; assay type: cell-based, hamster SUR1, mouse Kir6.2
T2 construct: expressed in transfected cells; host or cells: Xenopus laevis oocytes injected with in vitro transcribed mRNA; excised inside-out patches
Procedure: as §2
(§4) Two to 15 days after injection, oocytes were devitellinized and recombinant KATP channels were characterized by the patch-clamp technique in the excised inside-out configuration (Hamill et al., Arch. Eur. J. Physiol., 1981, 391, 85-100). Patch pipettes (2-10 MΩ) contained 154 mM K^+, 146 mM Cl^−, 5 MM Mg^2+, and 10 mM PIPES (pH 7.1). The cytoplasmic face of the patch was bathed in solutions which all contained 174 mM K^+, 40 mM Cl^−, 1 mM EGTA, 1 Mg^2+, 10 mM PIPES (pH 7.1), and methanesulfonate (approximately, 160 mM, depending on the ATP and ADP amounts added—as the remaining anions. ATP and ADP (potassium salt; Sigma), SR47063 (20 mM stock in DMSO; Sanofi Recherche), diazoxide (100 mM stock in DMSO; Sigma) and P1075 (20 mM stock in DMSO; Leo Pharmaceutical Products) were added as specified. The membrane potential was maintained at −50 mV. Experiments were conducted at room temperature (22-24° C.).
(§5) Applications of the various solutions to the intracellular face of the patch was performed using a RSC-100 rapid-solution-changer (Bio-Logic). Analog signals were filtered at 300 Hz and sampled at 1 kHz. Slow fluctuations of the no-channel-open baseline of the signal were removed by interactive fitting of the baseline with a spline curve and subtraction of this fit from the signal. Acquisition, analysis, and presentation were performed with in-house software.

[4] = target: T3, MRP1-Kir6.2 channels (Homo sapiens, UniProt P33527, M117T); assay: Inside-out patch-clamp of MRP1-Kir6.2 fusion channels expressed in Xenopus oocytes; assay type: cell-based, mouse Kir6.2
T3 construct: expressed in transfected cells; host or cells: Xenopus laevis oocytes injected with in vitro transcribed mRNA; excised inside-out patches
Procedure: as §2
as §4, with “C.). […]” for “C.).”

[5] = target: T4, SUR2A-Kir6.2 channels (Rattus norvegicus, UniProt Q63563); assay: Inside-out patch-clamp of SUR2A-Kir6.2 fusion channels expressed in Xenopus oocytes; assay type: cell-based, mouse Kir6.2; conditions: for Effect of K-channel opener on SUR2A-Kir6.2 channels: opener 10 μM, in the presence of partially-inhibiting ATP (100 μM), -50 mV
T4 construct: expressed in transfected cells; host or cells: Xenopus laevis oocytes injected with in vitro transcribed mRNA; excised inside-out patches
Procedure: as §2, §4, §5

[6] = target: T5, YCF1-Kir6.2ΔC36 (UniProt P39109+Q61743); assay: Inside-out patch-clamp of YCF1-Kir6.2ΔC36 channels expressed in Xenopus oocytes; assay type: cell-based, yeast YCF1, mouse Kir6.2
T5 construct: expressed in transfected cells; host or cells: Xenopus laevis oocytes injected with in vitro transcribed mRNA; excised inside-out patches
Text: as §1, §2, §3

[7] = tested on: Xenopus oocytes; assay: Density of active fusion channels: ATP-inhibitable current after patch excision; assay type: cell-based, Xenopus laevis
Procedure: as §2, §4, §5

[8] = ADP at submillimolar concentrations
[9] = total current blocked by 2 mM ATP after patch excision

T2 sequence (Q09427+Q61743 fused): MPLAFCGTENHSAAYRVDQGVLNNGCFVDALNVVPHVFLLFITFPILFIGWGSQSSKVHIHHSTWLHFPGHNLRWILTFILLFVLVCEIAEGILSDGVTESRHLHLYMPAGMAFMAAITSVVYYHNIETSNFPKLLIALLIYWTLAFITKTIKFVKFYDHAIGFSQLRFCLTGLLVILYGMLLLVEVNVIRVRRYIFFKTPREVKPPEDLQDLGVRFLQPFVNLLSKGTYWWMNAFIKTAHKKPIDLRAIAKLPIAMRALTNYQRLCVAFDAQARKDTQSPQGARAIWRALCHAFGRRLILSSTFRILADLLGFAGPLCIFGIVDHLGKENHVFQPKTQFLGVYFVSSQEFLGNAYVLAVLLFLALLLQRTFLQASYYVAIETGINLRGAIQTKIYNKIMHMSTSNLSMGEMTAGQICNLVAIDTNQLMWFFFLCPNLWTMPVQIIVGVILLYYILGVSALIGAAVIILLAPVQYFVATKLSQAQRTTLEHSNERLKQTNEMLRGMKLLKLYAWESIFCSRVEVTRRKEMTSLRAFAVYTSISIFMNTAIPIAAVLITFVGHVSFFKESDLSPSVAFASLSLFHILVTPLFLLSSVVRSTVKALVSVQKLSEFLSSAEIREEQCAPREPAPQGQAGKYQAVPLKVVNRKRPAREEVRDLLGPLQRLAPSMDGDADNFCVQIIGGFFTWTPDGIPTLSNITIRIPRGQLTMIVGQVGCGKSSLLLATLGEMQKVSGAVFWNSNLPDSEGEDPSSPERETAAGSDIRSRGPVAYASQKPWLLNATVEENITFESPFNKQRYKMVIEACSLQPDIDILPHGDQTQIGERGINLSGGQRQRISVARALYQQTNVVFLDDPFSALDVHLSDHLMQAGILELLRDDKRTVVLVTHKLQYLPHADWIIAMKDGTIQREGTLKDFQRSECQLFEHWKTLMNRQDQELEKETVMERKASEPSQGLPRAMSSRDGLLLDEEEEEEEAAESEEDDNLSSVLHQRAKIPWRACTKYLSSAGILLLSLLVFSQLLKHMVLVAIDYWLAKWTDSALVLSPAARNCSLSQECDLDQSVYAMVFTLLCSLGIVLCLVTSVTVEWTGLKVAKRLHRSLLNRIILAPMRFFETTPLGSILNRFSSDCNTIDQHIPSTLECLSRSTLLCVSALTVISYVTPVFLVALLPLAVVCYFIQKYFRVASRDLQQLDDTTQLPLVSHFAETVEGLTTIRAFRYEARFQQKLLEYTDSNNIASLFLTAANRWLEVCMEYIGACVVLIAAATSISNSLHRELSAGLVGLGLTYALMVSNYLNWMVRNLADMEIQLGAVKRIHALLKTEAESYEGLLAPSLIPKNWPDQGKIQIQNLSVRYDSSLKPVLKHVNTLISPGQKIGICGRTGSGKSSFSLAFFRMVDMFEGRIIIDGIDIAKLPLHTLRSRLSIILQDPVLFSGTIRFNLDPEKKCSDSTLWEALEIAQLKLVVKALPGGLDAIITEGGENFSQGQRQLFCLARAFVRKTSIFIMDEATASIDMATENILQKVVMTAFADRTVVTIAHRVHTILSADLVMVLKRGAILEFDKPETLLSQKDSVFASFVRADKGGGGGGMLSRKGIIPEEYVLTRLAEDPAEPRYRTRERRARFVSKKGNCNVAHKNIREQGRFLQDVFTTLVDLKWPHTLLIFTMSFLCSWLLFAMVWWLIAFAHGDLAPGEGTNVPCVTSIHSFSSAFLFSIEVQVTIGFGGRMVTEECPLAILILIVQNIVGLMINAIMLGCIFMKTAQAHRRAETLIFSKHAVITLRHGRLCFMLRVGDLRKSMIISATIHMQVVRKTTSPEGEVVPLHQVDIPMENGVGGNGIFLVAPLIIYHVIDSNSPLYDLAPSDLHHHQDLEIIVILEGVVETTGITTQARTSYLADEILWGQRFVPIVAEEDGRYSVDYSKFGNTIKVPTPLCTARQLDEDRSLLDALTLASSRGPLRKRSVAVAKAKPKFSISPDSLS
T4 sequence (Q63563 with tags, fused parts or gaps): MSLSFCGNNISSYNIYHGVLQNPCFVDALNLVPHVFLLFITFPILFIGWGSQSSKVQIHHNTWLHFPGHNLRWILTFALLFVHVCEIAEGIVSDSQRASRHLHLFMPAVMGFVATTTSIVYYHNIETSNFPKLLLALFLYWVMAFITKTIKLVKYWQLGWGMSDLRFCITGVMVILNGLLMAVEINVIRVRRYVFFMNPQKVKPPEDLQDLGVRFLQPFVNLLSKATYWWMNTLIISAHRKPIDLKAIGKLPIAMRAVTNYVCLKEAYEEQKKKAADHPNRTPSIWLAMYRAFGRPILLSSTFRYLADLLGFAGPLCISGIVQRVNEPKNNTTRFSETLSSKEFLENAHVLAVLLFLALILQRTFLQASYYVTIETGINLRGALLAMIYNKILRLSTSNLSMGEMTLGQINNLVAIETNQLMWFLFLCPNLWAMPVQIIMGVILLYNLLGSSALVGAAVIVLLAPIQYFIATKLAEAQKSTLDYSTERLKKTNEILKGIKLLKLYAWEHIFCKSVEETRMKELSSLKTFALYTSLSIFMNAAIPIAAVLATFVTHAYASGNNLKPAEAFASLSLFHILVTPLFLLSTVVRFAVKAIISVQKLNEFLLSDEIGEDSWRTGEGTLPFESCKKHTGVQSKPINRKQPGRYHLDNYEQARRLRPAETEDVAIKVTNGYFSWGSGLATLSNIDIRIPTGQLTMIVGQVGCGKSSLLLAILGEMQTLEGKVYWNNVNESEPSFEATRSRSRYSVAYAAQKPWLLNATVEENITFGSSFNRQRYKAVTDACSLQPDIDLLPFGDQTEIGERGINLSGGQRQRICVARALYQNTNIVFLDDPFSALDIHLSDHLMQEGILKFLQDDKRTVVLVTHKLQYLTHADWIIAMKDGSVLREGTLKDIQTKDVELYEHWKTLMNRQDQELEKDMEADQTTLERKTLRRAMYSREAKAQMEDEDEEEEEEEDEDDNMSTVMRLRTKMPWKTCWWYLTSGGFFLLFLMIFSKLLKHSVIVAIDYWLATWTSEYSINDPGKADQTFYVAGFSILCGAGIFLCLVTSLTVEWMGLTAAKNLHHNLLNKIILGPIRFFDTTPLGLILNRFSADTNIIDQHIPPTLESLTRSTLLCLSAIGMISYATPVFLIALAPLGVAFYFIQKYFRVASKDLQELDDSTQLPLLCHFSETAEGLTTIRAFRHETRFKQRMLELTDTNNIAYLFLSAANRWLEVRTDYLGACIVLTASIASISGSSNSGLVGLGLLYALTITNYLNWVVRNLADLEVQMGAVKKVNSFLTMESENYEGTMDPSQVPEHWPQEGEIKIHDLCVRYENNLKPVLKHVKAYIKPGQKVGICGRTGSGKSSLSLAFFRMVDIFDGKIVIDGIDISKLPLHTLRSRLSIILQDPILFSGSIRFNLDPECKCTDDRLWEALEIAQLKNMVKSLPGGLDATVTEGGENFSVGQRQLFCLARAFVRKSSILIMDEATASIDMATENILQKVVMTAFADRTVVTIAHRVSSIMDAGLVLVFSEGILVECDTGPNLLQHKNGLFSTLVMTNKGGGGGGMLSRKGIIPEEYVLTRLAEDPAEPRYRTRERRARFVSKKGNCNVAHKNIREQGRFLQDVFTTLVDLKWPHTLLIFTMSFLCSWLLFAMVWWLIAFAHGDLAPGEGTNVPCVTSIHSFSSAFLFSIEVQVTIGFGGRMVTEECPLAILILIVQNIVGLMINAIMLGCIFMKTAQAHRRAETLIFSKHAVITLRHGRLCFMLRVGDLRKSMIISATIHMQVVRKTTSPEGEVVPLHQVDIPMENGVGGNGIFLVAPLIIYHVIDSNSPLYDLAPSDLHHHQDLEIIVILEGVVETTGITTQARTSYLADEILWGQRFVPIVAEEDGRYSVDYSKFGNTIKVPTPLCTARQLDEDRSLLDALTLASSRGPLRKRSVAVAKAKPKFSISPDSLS

Nc1ncnc2c1ncn2[C@@H]1O[C@H](COP(=O)(O)OP(=O)(O)O)[C@@H](O)[C@H]1O [ADP]
Effect of ADP on Kir6.2ΔC36 (SUR-less) channels [1]: inhibited
Sensitivity of MRP1-Kir6.2KR370AA to ADP [2]: could not be distinguished from the non-mutated MRP1-Kir6.2 protein
Effect of ADP on SUR1-Kir6.2 fusion channels [3, 8]: activation
Effect of ADP on MRP1-Kir6.2 currents ([4]; ADP 100 μM and 300 μM, in the presence of 100 μM ATP): reduced in a dose-dependent manner
Effect of ADP on SUR2A-Kir6.2 fusion channels [5, 8]: activation

Nc1ncnc2c1ncn2[C@@H]1O[C@H](COP(=O)(O)OP(=O)(O)OP(=O)(O)O)[C@@H](O)[C@H]1O [ATP]
Sensitivity of MRP1-Kir6.2KR370AA to ATP [2]: could not be distinguished from the non-mutated MRP1-Kir6.2 protein
Sensitivity of SUR1-Kir6.2 channels to ATP [3]: high sensitivity
Effect of ATP on YCF1-Kir6.2ΔC36 currents [6]: ATP-sensitive currents
Sensitivity of MRP1-Kir6.2 channels to inhibition by ATP [4]: less sensitive to inhibition by ATP than either SUR-Kir6.2 fusions or wild-type channels
Sensitivity of SUR2A-Kir6.2 channels to ATP [5]: high sensitivity

CCC(C)(C)N=C(NC#N)Nc1cccnc1 [P1075]
Effect of K-channel opener on SUR2A-Kir6.2 channels [5]: activated

CC1(C)C=C(n2ccccc2=NC#N)c2cc([N+](=O)[O-])ccc2O1 [SR47063]
Effect of K-channel opener on SUR2A-Kir6.2 channels [5]: activated

CC1=NS(=O)(=O)c2cc(Cl)ccc2N1 [diazoxide]
Effect of opener on SUR1-Kir6.2 channels ([3]; diazoxide 300 μM): activated

MRP1-Kir6.2: fusion of human MRP1 C-terminus to mouse Kir6.2 N-terminus with hexaglycine spacer
Patch current, fold lower than SUR1-Kir6.2 [7, 9]: 7 fold
Patch current, fold lower than SUR2A-Kir6.2 [7, 9]: 5 fold

YCF1-Kir6.2: fusion of yeast YCF1 with mouse Kir6.2, hexaglycine spacer
ATP-inhibitable current of the construct after patch excision [7]: no detectable exogenous current

YCF1-Kir6.2ΔC36: YCF1-Kir6.2 fusion with last 36 residues truncated to remove the RKR signal
ATP-inhibitable current of the construct after patch excision [7]: noticeably small compared to the other constructs
